Consider 22 compounds from patent US20080161309A1, “Novel Compounds” (priority 2004, published 2008).

Where a name gives a salt, the structure may show the parent alone.

A short description of data set [1]: Vapor sorption analysis of salts. As to conditions: 90% relative humidity, 25° C.; for moles water uptake per total moles of sample at 90% RH: calculated; for % mass change at 90% RH: compared to original mass of sample. In kind it is physicochemical. How it is done:
The propensity of besylate, hydrochloride, edisylate and fumarate salts of (2S)-2-[(S)-(4-chloro-2-methoxyphenoxy)(phenyl)methyl]morpholine to absorb water vapor was studied at various relative humidities (RH). The besylate, hydrochloride, and edisylate salts were analysed using a VTI Corporation SGA-100 Symmetric Vapor Sorption Analyzer equipped with a CI Electronics Limited, CI MK2, 1 Gram Microbalance, an EdgeTech MODEL 2000 […] DF DEWPOINT HYGROMETER, and an JULABO USA, Inc F25-HE Refrigerated and Heated Circulator. The following method was used:
The propensity of (2S)-2-[(S)-(4-chloro-2-methoxyphenoxy)(phenyl)methyl]morpholine […] to absorb water was similarly analyzed using a VTI Corporation SGA-100 Symmetric Vapor Sorption Analyzer equipped with a CAHN INSTRUMENTS INC, INC. D-200 Digital Recording Balance, an EdgeTech MODEL 2000 […] DF DEWPOINT HYGROMETER, and a JULABO USA, Inc F25-HD Refrigerated and Heated Circulator.

Data set [2] concerns capsaicin-induced mechanical allodynia. Kind of data set: Rat model of capsaicin-induced mechanical allodynia. In kind it is in vivo. To be noted: sc, male Sprague-Dawley rats, 10 mg/kg subcutaneously, PWT 1 hour after single dose, mean of eight animals, normalized for vehicle, read-out: % Inhibition of allodynia. How it is done: Compounds of the present invention may be assayed for their ability to treat fibromylagia—like pain in a rat model of capsaicin-induced mechanical allodynia (e.g., Sluka, K A, (2002) J of Neuroscience, 22(13): 5687-5693). For example, a rat model of capsaicin-induced mechanical allodynia) was be carried out as follows:
On day 0, male Sprague-Dawley rats (˜150 g) in the dark cycle were placed in suspended wire-bottom cages and allowed to acclimate for 0.5 hour in a darkened, quiet room. The day 0 paw withdrawal threshold (PWT) was determined on the left hind paw by Von Frey hair assessment using the Dixon up and down method. After assessment, the plantar muscle of the right hind paw was injected with 100 μl capsaicin (0.25% (w/v) in 10% ethanol, 10% Tween 80, in sterile saline). On day 6 the PWT of the left hindpaw (contralateral from injection site) was determined for each animal. Animals from the day 6 prereads with PWT≦11.7 g were considered allodynic responders and were regrouped so that each cage had similar mean PWT values. On day 7, responders were dosed subcutaneously with 10 mg compound/kg body weight, or with vehicle alone. The vehicle was phosphate buffered saline containing 2% Cremophor® EL (BASF). The contralateral PWT values were determined at 1 hour after the single dose, with the investigator blinded to the dosing scheme.
In addition, the day 6 PWT was subtracted from the day 0 PWT to give the baseline window of allodynia present in each animal.

The target of data set [3] is T1, human norepinephrine transporter (hNET) (Homo sapiens, UniProt P23975).
T1 construct: expressed in transfected cells; host or cells: HEK-293, membranes
T1 sequence (P23975 whole entry): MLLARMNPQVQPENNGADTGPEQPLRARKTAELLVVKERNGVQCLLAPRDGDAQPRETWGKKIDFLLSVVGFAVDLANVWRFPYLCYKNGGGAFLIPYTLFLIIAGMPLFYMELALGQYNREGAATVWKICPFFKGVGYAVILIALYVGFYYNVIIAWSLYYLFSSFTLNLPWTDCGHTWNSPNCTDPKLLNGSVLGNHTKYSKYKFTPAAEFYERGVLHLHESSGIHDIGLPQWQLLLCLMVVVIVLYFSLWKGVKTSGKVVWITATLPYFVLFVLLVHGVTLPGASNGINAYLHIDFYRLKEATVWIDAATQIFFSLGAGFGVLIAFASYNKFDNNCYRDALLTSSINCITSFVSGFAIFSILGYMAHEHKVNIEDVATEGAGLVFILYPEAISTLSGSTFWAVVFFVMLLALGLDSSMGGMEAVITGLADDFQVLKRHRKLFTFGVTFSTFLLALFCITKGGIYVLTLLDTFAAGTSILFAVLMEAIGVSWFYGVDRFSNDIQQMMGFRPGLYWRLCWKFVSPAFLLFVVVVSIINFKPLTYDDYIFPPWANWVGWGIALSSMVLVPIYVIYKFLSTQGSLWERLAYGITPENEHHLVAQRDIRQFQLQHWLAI
Kind of data set: hNET receptor binding, [125I]-RTI-55, HEK-293 membranes. As to conditions: Cheng-Prusoff, read-out: NET Ki. How it is done:
Cell pastes of HEK-293 cells transfected with a human norepinephrine transporter cDNA were prepared. The cell pastes were resuspended in 400 to 700 ml of Krebs-HEPES assay buffer (25 mM HEPES, 122 mM NaCl, 3 mM KCl, 1.2 mM MgSO4, 1.3 mM CaCl2, and 11 mM glucose, pH 7.4) with a Polytron homogenizer at setting 7 for 30 seconds. Aliquots of membranes (5 mg/ml protein) were stored in liquid nitrogen until used.
The binding assay was set up in Beckman deep-well polypropylene plates with a total volume of 250 μl containing: drug (10^−5M to 10^−12M), cell membranes, and […] [^125I]-RTI-55 (Perkin Elmer, NEX-272; specific activity 2200 Ci/mmol). The reaction was incubated by gentle agitation for 90 minutes at room temperature and was terminated by filtration through Whatman GF/C filter plates using a Brandel 96-well plate harvester. Scintillation fluid (100 μl) was added to each well, and bound [^125I]-RTI-55 was determined using a Wallac Trilux Beta Plate Counter. Test compounds were run in duplicate, and specific binding was defined as the difference between binding in the presence and absence of 10 μM desipramine.
Excel and GraphPad Prism software were used for data calculation and analysis. IC50 values were converted to Ki values using the Cheng-Prusoff equation. The Ki values (nM) for the hNET are reported below in Table 1.

The target in data set [4] is T2, human serotonin transporter (hSERT) (Homo sapiens, UniProt P31645).
T2 construct: expressed in transfected cells; host or cells: HEK-293, membranes
T2 sequence (P31645 whole entry): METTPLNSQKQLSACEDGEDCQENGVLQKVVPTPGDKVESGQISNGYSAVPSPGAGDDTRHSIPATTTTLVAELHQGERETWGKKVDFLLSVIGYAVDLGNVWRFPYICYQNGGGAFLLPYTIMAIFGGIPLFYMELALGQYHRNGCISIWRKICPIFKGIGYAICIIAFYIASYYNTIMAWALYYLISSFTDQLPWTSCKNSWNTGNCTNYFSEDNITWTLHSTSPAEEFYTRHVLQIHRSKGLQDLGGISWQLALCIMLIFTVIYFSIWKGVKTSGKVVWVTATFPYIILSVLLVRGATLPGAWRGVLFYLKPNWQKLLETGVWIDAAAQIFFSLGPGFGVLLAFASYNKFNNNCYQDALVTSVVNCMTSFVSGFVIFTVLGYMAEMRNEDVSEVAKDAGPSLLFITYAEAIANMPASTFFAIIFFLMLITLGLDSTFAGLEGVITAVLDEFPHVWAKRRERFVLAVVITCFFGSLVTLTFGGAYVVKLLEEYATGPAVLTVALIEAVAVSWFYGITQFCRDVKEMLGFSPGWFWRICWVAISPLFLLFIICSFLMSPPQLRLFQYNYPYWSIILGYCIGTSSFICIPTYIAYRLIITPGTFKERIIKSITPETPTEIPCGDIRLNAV
Kind of data set: hSERT receptor binding, [125I]-RTI-55, HEK-293 membranes. To be noted: [125I]-RTI-55, HEK-293 membranes, Cheng-Prusoff; read-out: SERT Ki. How it is done:
Cell pastes of HEK-293 cells transfected with a human serotonin transporter cDNA were prepared. […] Aliquots of membranes (−2.5 mg/ml protein) were stored in liquid nitrogen until used.
The reaction was incubated and gently agitated for 90 minutes at room temperature, and terminated by removal of assay volume. […] Test compounds were run in duplicate, and specific binding was defined as the difference between binding in the presence and absence of 10 μM citalopram. Excel and GraphPad Prism software were used for data calculation and analysis. IC50 values were converted to Ki values using the Cheng-Prusoff equation.

In the case of `COc1cc(Cl)ccc1OC(c1cccc(F)c1)C1CNCCO1` (centres unmarked) (as salt: camsylate) [Example 3], the melting point was found to be 162.03 °C.
The compound `FC(F)Oc1cc(Cl)ccc1OC(c1ccccc1)C1CNCCO1` (centres unmarked) (as salt: citrate) [Example 4] returned a melting point of 119.29 °C.
On to `Fc1c(Cl)cccc1OC(c1ccccc1)C1CNCCO1` (centres unmarked) (as salt: edisylate) [Example 8], for which the melting point came to 189.23 °C.
`Fc1cccc(OC(c2ccccc2)C2CNCCO2)c1F` (centres unmarked) (as salt: fumarate) [Example 6] came in with a melting point of 119.96 °C.
As for `Fc1ccc(OC(c2ccccc2)C2CNCCO2)c(F)c1` (centres unmarked) (as salt: hydrobromid) [Example 7], the melting point came to 106.48 °C.
`COc1cc(Cl)ccc1OC(c1ccc(F)cc1)C1CNCCO1` (centres unmarked) (as salt: hydrochloride) [Example 2] gave a melting point of 148.11 °C.
Consider `c1ccc(C(Oc2cccc3cccnc23)C2CNCCO2)cc1` (centres unmarked) (as salt: succinate) [Example 9], for which the melting point was 98.24 °C.
As to `Fc1cc(Cl)ccc1OC(c1ccccc1)C1CNCCO1` (centres unmarked) (as salt: tartrate) [Example 5], the melting point worked out at 92.68 °C.
As to `COc1cc(Cl)ccc1O[C@@H](c1ccccc1)[C@@H]1CNCCO1.Cl` [Example 38, (2S)-2-[(1S)-(4-chloro-2-methoxyphenoxy) (phenyl)methyl] morpholine hydrochloride], in data set [1], the “moles water uptake per total moles of sample at 90% RH” value is on record as 0.77 and the “% mass change at 90% RH” value was 3.8%. Besides, the inhibition in vivo at 10 mg/kg in data set [2] was determined as 59%.
Take `Cc1cccc([C@H](Oc2ccc(F)cc2Cl)[C@@H]2CNCCO2)c1` [Example 56, (2S)-2-[(1S)-(2-Chloro-4-fluorophenoxy)-m-tolyl-methyl] morpholine hydrochloride]: the inhibition in vivo at 10 mg/kg in data set [2] was found to be 35.6%. Further, the Ki in data set [3] worked out at 13.6 nM; in data set [4], 152 nM.
On the same counts, the results for `COc1cccc([C@H](Oc2ccc(C)cc2OC)[C@@H]2CNCCO2)c1` [Example 62, (2S)-2-[(1S)-(2-Methoxy-4-methylphenoxy) (3-methoxyphenyl)methyl] morpholine hydrochloride] are 40.5%, 15.3 nM and 153 nM.
For the compound `COc1cccc([C@H](Oc2ccc(F)cc2Br)[C@@H]2CNCCO2)c1` [Example 70, (2S)-2-[(1S)-(2-Bromo-4-fluorophenoxy) (3-methoxyphenyl)methyl] morpholine hydrochloride], the inhibition in vivo at 10 mg/kg in data set [2] is 27.3%. Further, the Ki in data set [3] stood at 11.9 nM; in data set [4] it was 111 nM.
Turning to `COc1cc(C)ccc1O[C@@H](c1cccc(F)c1)[C@@H]1CNCCO1` [Example 79, (2S)-2-[(1S)-(3-Fluorophenyl)(2-methoxy-4-methylphenoxy)-methyl]morpholine hydrochloride], the inhibition in vivo at 10 mg/kg in data set [2] was 99.5%. Also, the results for the Ki in data set [3] and in data set [4] were 12.6 nM and 100 nM, respectively.
`Fc1c(Cl)cccc1O[C@@H](c1ccccc1)[C@@H]1CNCCO1` [Example 80, (2S)-2-[(1S)-(3-chloro-2-fluoro-phenoxy)-phenyl-methyl]-morpholine fumarate salt]: the inhibition in vivo at 10 mg/kg in data set [2] is 40%. Also, the figures for the Ki in data set [3] and in data set [4] were 4.4 nM and 127 nM, respectively.
Turning to `Cc1ccc(Cl)c(O[C@@H](c2ccccc2)[C@@H]2CNCCO2)c1` [Example 87, (2S)-2-[(1S)-(2-Chloro-5-methylphenoxy)phenylmethyl] morpholine fumarate], the inhibition in vivo at 10 mg/kg in data set [2] is 9.3%. Besides, the Ki was found to be 18 nM in data set [3] and 184 nM in data set [4].
`Clc1ccc(Cl)c(O[C@@H](c2ccccc2)[C@@H]2CNCCO2)c1` [Example 89, (2S)-2-[(1S)-(2,5-Dichlorophenoxy)phenylmethyl] morpholine fumarate]: the inhibition in vivo at 10 mg/kg in data set [2] was 27.8%. Moreover, the results for the Ki in data set [3] and in data set [4] were 20.3 nM and 171 nM, respectively.
For `COc1cc(Cl)c(Cl)cc1O[C@@H](c1ccccc1)[C@@H]1CNCCO1` [Example 93, (2S)-2-[(1S)-(4,5-Dichloro-2-methoxyphenoxy)phenylmethyl] morpholine fumarate], the inhibition in vivo at 10 mg/kg in data set [2] turned out to be 39%. For the same compound, the Ki in data set [3] was found to be 164 nM; in data set [4], 70 nM.
On to `Fc1ccc(O[C@@H](c2cccc(Cl)c2)[C@@H]2CNCCO2)c(Cl)c1` [Example 102, (2S)-2-[(1S)-(2-Chloro-4-fluorophenoxy) (3-chlorophenyl)methyl] morpholine fumarate], for which, in data set [2], the inhibition in vivo at 10 mg/kg came to 59.5%. Further, the Ki in data set [3] was 48.3 nM; in data set [4] it was 222 nM.
As for `Fc1ccc(O[C@@H](c2ccccn2)[C@@H]2CNCCO2)c(Cl)c1` [Example 105, (2S)-2-[(1S)-(2-chloro-4-fluorophenoxy)(pyridin-2-yl)methyl]morpholine fumarate], the inhibition in vivo at 10 mg/kg in data set [2] came to 13.7%. For the same compound, the Ki was found to be 3.5 nM in data set [3] and 621 nM in data set [4].
On to `COc1cc(Cl)ccc1O[C@@H](c1ccccc1)[C@@H]1CNCCO1.O=S(=O)(O)c1ccccc1` [besylate, (2S)-2-[(S)-(4-chloro-2-methoxyphenoxy)(phenyl)methyl]morpholine besylate], for which, in data set [1], the “moles water uptake per total moles of sample at 90% RH” value is recorded as 0.17 and the “% mass change at 90% RH” value is on record as 0.64%.
For `COc1cc(Cl)ccc1O[C@@H](c1ccccc1)[C@@H]1CNCCO1.O=C(O)/C=C/C(=O)O` [fumaric, (2S)-2-[(1S)-(4-chloro-2-methoxyphenoxy) (phenyl)methyl]morpholine fumarate] the same measures were 0.69 and 2.8%.
For “(2S)-2-[(S)-(4-chloro-2-methoxyphenoxy)(phenyl)methyl]morpholine edisylate” the same measures were 1.32 and 4.6%.
